Data as given in ChEMBL document CHEMBL3286379, “Design and synthesis of pyrimidine molecules endowed with thiazolidin-4-one as new anticancer agents” (Eur J Med Chem, 2014).

Tests used:
Type in all cases: functional
CAKI-1 = assay: Growth inhibition of human CAKI-1 cells after 48 hrs by sulforhodamine B assay; details: CAKI-1, 48 h
SK-MEL-2 = assay: Growth inhibition of human SK-MEL-2 cells after 48 hrs by sulforhodamine B assay; details: SK-MEL-2, 48 h
T47D = assay: Growth inhibition of human T47D cells after 48 hrs by sulforhodamine B assay
[1] = Growth inhibition of human OVCAR3 cells after 48 hrs by sulforhodamine B assay; details: OVCAR-3, 48 h
HT-29 = assay: Growth inhibition of human HT-29 cells after 48 hrs by sulforhodamine B assay; details: HT-29, 48 h
DU-145 = assay: Growth inhibition of human DU145 cells after 48 hrs by sulforhodamine B assay; details: DU-145, 48 h
SF-268 = assay: Growth inhibition of human SF268 cells after 48 hrs by sulforhodamine B assay; details: SF-268, 48 h
NCI-H322M = assay: Growth inhibition of human NCI-H322M cells after 48 hrs by sulforhodamine B assay
[2] = Growth inhibition of human HCC2998 cells after 48 hrs by sulforhodamine B assay; details: HCC 2998, 48 h
[3] = Growth inhibition of human HOP92 cells after 48 hrs by sulforhodamine B assay; details: HOP-92, 48 h
MDA-MB-231 = assay: Growth inhibition of human MDA-MB-231 cells after 48 hrs by sulforhodamine B assay; details: MDA-MB-231, 48 h
SR = assay: Growth inhibition of human SR cells after 48 hrs by sulforhodamine B assay
PC-3 = assay: Growth inhibition of human PC3 cells after 48 hrs by sulforhodamine B assay; details: PC-3, 48 h
[4] = Growth inhibition of human OVCAR5 cells after 48 hrs by sulforhodamine B assay; details: OVCAR-5, 48 h
[5] = Growth inhibition of human OVCAR8 cells after 48 hrs by sulforhodamine B assay; details: OVCAR-8, 48 h
[6] = Growth inhibition of human UACC257 cells after 48 hrs by sulforhodamine B assay; details: UACC-257, 48 h
NCI-H522 = assay: Growth inhibition of human NCI-H522 cells after 48 hrs by sulforhodamine B assay; details: NCI-H522, 48 h
[7] = Growth inhibition of human UACC62 cells after 48 hrs by sulforhodamine B assay; details: UACC-62, 48 h
KM12 = assay: Growth inhibition of human KM12 cells after 48 hrs by sulforhodamine B assay; details: KM12, 48 h
MCF7 = assay: Growth inhibition of human MCF7 cells after 48 hrs by sulforhodamine B assay; details: MCF7, 48 h
[8] = read-out: LC50 (the source's name)
[9] = read-out: pLC50 (the source's name) (converted)

Nc1nc(-c2ccccc2Cl)cc(-c2ccc(Cl)cc2Cl)n1
GI50 (CAKI-1; read-out: GI50): 9.27 µM | CC50 (CAKI-1; [8]): > 100 µM | TGI (CAKI-1; read-out: TGI): > 100 µM | GI50 (CAKI-1; read-out: pGI50 (converted)): 9.33 µM | CC50 (CAKI-1; [9]): > 100 µM | TGI (CAKI-1; read-out: pTGI): > 100 µM | GI50 (SK-MEL-2; read-out: GI50): 6.1 µM | CC50 (SK-MEL-2; [8]): > 100 µM | TGI (SK-MEL-2; read-out: TGI): 44.7 µM | GI50 (SK-MEL-2; read-out: pGI50 (converted)): 6.17 µM | CC50 (SK-MEL-2; [9]): > 100 µM | TGI (SK-MEL-2; read-out: pTGI (converted)): 44.7 µM | GI50 (T47D; read-out: GI50): 6.58 µM | CC50 (T47D; [8]): > 100 µM | TGI (T47D; read-out: TGI): > 100 µM | GI50 (T47D; read-out: pGI50 (converted)): 6.61 µM | CC50 (T47D; [9]): > 100 µM | TGI (T47D; read-out: pTGI): > 100 µM | GI50 ([1]; read-out: GI50): 4.05 µM | CC50 [1, 8]: > 100 µM | TGI ([1]; read-out: TGI): 20.7 µM | GI50 ([1]; read-out: pGI50 (converted)): 4.07 µM | CC50 [1, 9]: > 100 µM | TGI ([1]; read-out: pTGI (converted)): 20.9 µM | GI50 (HT-29; read-out: GI50): 4.32 µM | CC50 (HT-29; [8]): > 100 µM | TGI (HT-29; read-out: TGI): 24.3 µM | GI50 (HT-29; read-out: pGI50 (converted)): 4.37 µM | CC50 (HT-29; [9]): > 100 µM | TGI (HT-29; read-out: pTGI (converted)): 24.5 µM | GI50 (DU-145; read-out: GI50): 5.33 µM | CC50 (DU-145; [8]): > 100 µM | TGI (DU-145; read-out: TGI): 70.1 µM | GI50 (DU-145; read-out: pGI50 (converted)): 5.37 µM | CC50 (DU-145; [9]): > 100 µM | TGI (DU-145; read-out: pTGI (converted)): 70.8 µM | GI50 (SF-268; read-out: GI50): 5.01 µM | CC50 (SF-268; [8]): > 100 µM | TGI (SF-268; read-out: TGI): 81.6 µM | GI50 (SF-268; read-out: pGI50 (converted)): 5.01 µM | CC50 (SF-268; [9]): > 100 µM | TGI (SF-268; read-out: pTGI (converted)): 81.3 µM | GI50 (NCI-H322M; read-out: GI50): 31.2 µM | CC50 (NCI-H322M; [8]): > 100 µM | TGI (NCI-H322M; read-out: TGI): > 100 µM | GI50 (NCI-H322M; read-out: pGI50 (converted)): 30.9 µM | CC50 (NCI-H322M; [9]): > 100 µM | TGI (NCI-H322M; read-out: pTGI): > 100 µM | GI50 ([2]; read-out: GI50): 7.19 µM | CC50 [2, 8]: > 100 µM | TGI ([2]; read-out: TGI): 44 µM | GI50 ([2]; read-out: pGI50 (converted)): 7.24 µM | CC50 [2, 9]: > 100 µM | TGI ([2]; read-out: pTGI): 43.7 µM | GI50 ([3]; read-out: GI50): 0.527 µM | CC50 [3, 8]: > 100 µM | TGI ([3]; read-out: TGI): 7.62 µM | GI50 ([3]; read-out: pGI50 (converted)): 0.525 µM | CC50 [3, 9]: > 100 µM | TGI ([3]; read-out: pTGI (converted)): 7.59 µM | GI50 (MDA-MB-231; read-out: GI50): 9.3 µM | CC50 (MDA-MB-231; [8]): > 100 µM | TGI (MDA-MB-231; read-out: TGI): > 100 µM | GI50 (MDA-MB-231; read-out: pGI50 (converted)): 9.33 µM | CC50 (MDA-MB-231; [9]): > 100 µM | TGI (MDA-MB-231; read-out: pTGI): > 100 µM | GI50 (SR; read-out: GI50): 4.1 µM | CC50 (SR; [8]): > 100 µM | TGI (SR; read-out: TGI): > 100 µM | GI50 (SR; read-out: pGI50 (converted)): 4.07 µM | CC50 (SR; [9]): > 100 µM | TGI (SR; read-out: pTGI): > 100 µM | GI50 (PC-3; read-out: GI50): 5.43 µM | CC50 (PC-3; [8]): > 100 µM | TGI (PC-3; read-out: TGI): > 100 µM | GI50 (PC-3; read-out: pGI50 (converted)): 5.37 µM | CC50 (PC-3; [9]): > 100 µM | TGI (PC-3; read-out: pTGI): > 100 µM | GI50 ([4]; read-out: GI50): 8.09 µM | CC50 [4, 8]: > 100 µM | TGI ([4]; read-out: TGI): > 100 µM | GI50 ([4]; read-out: pGI50 (converted)): 8.13 µM | CC50 [4, 9]: > 100 µM | TGI ([4]; read-out: pTGI): > 100 µM | GI50 ([5]; read-out: GI50): 6.87 µM | CC50 [5, 8]: > 100 µM | TGI ([5]; read-out: TGI): > 100 µM | GI50 ([5]; read-out: pGI50 (converted)): 6.92 µM | CC50 [5, 9]: > 100 µM | TGI ([5]; read-out: pTGI): > 100 µM | GI50 ([6]; read-out: GI50): 11.9 µM | CC50 [6, 8]: > 100 µM | TGI ([6]; read-out: TGI): 55.2 µM | GI50 ([6]; read-out: pGI50 (converted)): 11.7 µM | CC50 [6, 9]: > 100 µM | TGI ([6]; read-out: pTGI (converted)): 55 µM | GI50 (NCI-H522; read-out: GI50): 3.27 µM | CC50 (NCI-H522; [8]): > 100 µM | TGI (NCI-H522; read-out: TGI): 23.3 µM | GI50 (NCI-H522; read-out: pGI50 (converted)): 3.31 µM | CC50 (NCI-H522; [9]): > 100 µM | TGI (NCI-H522; read-out: pTGI (converted)): 23.4 µM | GI50 ([7]; read-out: GI50): 5.93 µM | CC50 [7, 8]: > 100 µM | TGI ([7]; read-out: TGI): 44.2 µM | GI50 ([7]; read-out: pGI50 (converted)): 5.89 µM | CC50 [7, 9]: > 100 µM | TGI ([7]; read-out: pTGI (converted)): 44.7 µM | GI50 (KM12; read-out: GI50): 4.1 µM | CC50 (KM12; [8]): > 100 µM | TGI (KM12; read-out: TGI): 31.3 µM | GI50 (KM12; read-out: pGI50 (converted)): 4.07 µM | CC50 (KM12; [9]): > 100 µM | TGI (KM12; read-out: pTGI (converted)): 30.9 µM | GI50 (MCF7; read-out: GI50): 3.45 µM | CC50 (MCF7; [8]): > 100 µM | TGI (MCF7; read-out: TGI): > 100 µM | GI50 (MCF7; read-out: pGI50 (converted)): 3.47 µM | CC50 (MCF7; [9]): > 100 µM | TGI (MCF7; read-out: pTGI): > 100 µM
